Results reported in ChEMBL document CHEMBL4842359, “1,3-Diarylpyrazolyl-acylsulfonamides as Potent Anti-tuberculosis Agents Targeting Cell Wall Biosynthesis in Mycobacterium tuberculosis” (J Med Chem, 2021).
In brackets after ≈: the same amount, converted by molar mass.

Legend:
[1] = Thermodynamic solubility of compound at pH 7.4 aqueous phosphate buffer
[2] = Lipophilicity, logD of the compound at pH 7.4 by HPLC-DAD analysis; assay type: physicochemical; conditions: buffer
[3] = Metabolic stability in human liver microsomes assessed as compound remaining at 1 uM by LC-MS/MS analysis; assay type: ADME, Microsome; conditions: microsomes, 1 µM
[4] = Metabolic stability in rat liver microsomes assessed as compound remaining at 1 uM by LC-MS/MS analysis; assay type: ADME, Microsome; conditions: microsomes, 1 µM
[5] = Metabolic stability in mouse liver microsomes assessed as compound remaining at 1 uM by LC-MS/MS analysis; assay type: ADME, Microsome; conditions: microsomes, 1 µM
[6] = Plasma protein binding in human assessed as unbound fraction at 5 uM by LC-MS/MS analysis; assay type: ADME, cell-free; conditions: 5 µM
[7] = Terminal half life in iv dosed C57BL/6 mouse measured up to 24 hrs by LC-MS/MS analysis; assay type: ADME, organism-based; conditions: mouse, in vivo, 24 h
[8] = Unbound clearance in iv dosed C57BL/6 mouse measured up to 24 hrs by LC-MS/MS analysis; assay type: ADME, organism-based; conditions: in vivo
[9] = AUC (0 to t) in iv dosed C57BL/6 mouse measured up to 24 hrs by LC-MS/MS analysis; assay type: ADME, organism-based; parameters: time <=24; conditions: in vivo
[10] = tested on: Mycobacterium tuberculosis; experiment: microbe, parasite or virus in culture; conditions: H37Rv, 336 h
Description: Antimycobacterial activity against Mycobacterium tuberculosis H37Rv in presence of middlebrook 7H9/glucose/BSA/tyloxapol medium measured after 14 days by bioluminescence reporter assay

[11] = Volume of distribution in iv dosed C57BL/6 mouse measured up to 24 hrs by LC-MS/MS analysis; assay type: ADME, organism-based; conditions: in vivo
[12] = tested on: Mycobacterium tuberculosis; experiment: microbe, parasite or virus in culture; conditions: H37RvMA, 336 h
Description: Antimycobacterial activity against Mycobacterium tuberculosis H37RvMA in presence of middlebrook 7H9/glucose/BSA/tyloxapol medium measured for 2 weeks by bioluminescence reporter assay

SMILES | solubility thermodynamic [1] | MIC [10] | further results
CS(=O)(=O)NC(=O)/C=C/c1cn(-c2ccc(Cl)cc2)nc1-c1ccncc1 | 90 µM (≈ 36.3 µg/mL) | 4.7 µM (≈ 1.89 µg/mL) | logD [2]: 0.98; Stabilty [3]: 88%; Stabilty [4]: 82%; Stabilty [5]: 85%; Fu [6]: 0.015 fraction; beta t1/2 [7]: 1.1 h; CL free [8]: > 20000 mL/min/kg; AUCt [9]: 8.7 µmol·min/L
CS(=O)(=O)NC(=O)CCc1cn(-c2ccc(C(F)(F)F)cc2)nc1-c1ccc(Cl)cc1 | 50 µM (≈ 23.6 µg/mL) | 3.1 µM (≈ 1.46 µg/mL) | –
CS(=O)(=O)NC(=O)CCc1cc(-c2ccc(Br)cc2)n(-c2ccc(Cl)cc2)n1 | 170 µM (≈ 82.1 µg/mL) | > 50 µM | –
O=c1[nH]c(CCc2cn(-c3ccc(Br)cc3)nc2-c2ccc(Cl)cc2)no1 | < 5 µM | 50 µM (≈ 22.3 µg/mL) | –
O=C(O)CCc1cn(-c2ccc(Br)cc2)nc1-c1ccc(Cl)cc1 | 155 µM (≈ 62.9 µg/mL) | > 50 µM | –
CC(Cc1cn(-c2ccc(Cl)cc2)nc1-c1ccncc1)C(=O)NS(C)(=O)=O (stereo unspecified) | 190 µM (≈ 79.6 µg/mL) | > 50 µM | –
CS(=O)(=O)NC(=O)CCc1cn(-c2ccccc2)nc1-c1ccc(Cl)cc1 | 200 µM (≈ 80.8 µg/mL) | > 50 µM | –
CS(=O)(=O)NC(=O)CCc1cn(-c2ccc(Br)cc2)nc1-c1ccccc1 | 200 µM (≈ 89.7 µg/mL) | 2.3 µM (≈ 1.03 µg/mL) | –
CS(=O)(=O)NC(=O)CCc1cn(-c2ccc(Br)cc2)nc1-c1cnccn1 | 196 µM (≈ 88.3 µg/mL) | 20 µM (≈ 9.01 µg/mL) | –
CCS(=O)(=O)NC(=O)CCc1cn(-c2ccc(Br)cc2)nc1-c1ccc(Cl)cc1 | 10 µM (≈ 4.97 µg/mL) | – | –
CS(=O)(=O)NC(=O)CCc1cn(-c2cccc(Br)c2)nc1-c1ccc(Cl)cc1 | < 5 µM | > 50 µM | –
CS(=O)(=O)NC(=O)CCc1cc(-c2ccc(Cl)cc2)nn1-c1ccc(F)cc1 | 195 µM (≈ 82.3 µg/mL) | 5.5 µM (≈ 2.32 µg/mL) | –
CS(=O)(=O)NC(=O)CCc1cn(-c2ccc(C(F)(F)F)nc2)nc1-c1ccc(Cl)cc1 | 90 µM (≈ 42.6 µg/mL) | 4.7 µM (≈ 2.22 µg/mL) | logD [2]: 1.87; Stabilty [3]: 94%; Stabilty [4]: 98%; Stabilty [5]: 94%; Fu [6]: 0.036 fraction; beta t1/2 [7]: 3 h; Vd ([11]; mouse, 24 h): 8.7 L/kg; CL free [8]: 1872 mL/min/kg; AUCt [9]: 134 µmol·min/L
O=c1[nH]nc(CCc2cn(-c3ccc(Br)cc3)nc2-c2ccc(Cl)cc2)o1 | < 5 µM | 19 µM (≈ 8.47 µg/mL) | –
CS(=O)(=O)NC(=O)CCc1cn(-c2ccc(Br)cc2)nc1Cc1ccccc1 | 200 µM (≈ 92.5 µg/mL) | > 50 µM | –
CS(=O)(=O)NC(=O)NCc1cc(-c2ccc(Br)cc2)oc1-c1ccncc1 | 25 µM (≈ 11.3 µg/mL) | – | logD [2]: 0.36; Stabilty [3]: 98%; Stabilty [4]: 87%; Stabilty [5]: 85%; CL free [8]: > 20000 mL/min/kg; AUCt [9]: 20 µmol·min/L
CS(=O)(=O)NC(=O)NCc1cn(-c2ccc(C(F)(F)F)nc2)nc1-c1ccncc1 | 195 µM (≈ 85.9 µg/mL) | – | –
CS(=O)(=O)NC(=O)CCc1cn(-c2ccc(Br)cc2)nc1-c1ccc([N+](=O)[O-])cc1 | < 5 µM | – | –
CS(=O)(=O)NC(=O)CCc1nn(-c2ccc(Br)cc2)cc1-c1ccc(Cl)cc1 | 135 µM (≈ 65.2 µg/mL) | 37 µM (≈ 17.9 µg/mL) | –
C[S+]([O-])c1ccc(-n2cc(CCC(=O)NS(C)(=O)=O)c(-c3ccc(Cl)cc3)n2)cc1 (stereo unspecified) | 200 µM (≈ 93.2 µg/mL) | ≥ 50 µM | –
CS(=O)(=O)NC(=O)OCc1cn(-c2ccc(Cl)cc2)nc1-c1ccncc1 | – | 123 µM (≈ 50 µg/mL) | logD [2]: 2.73; Stabilty [3]: 97%; Stabilty [4]: 97%; Stabilty [5]: 98%; Fu [6]: 0.03 fraction; beta t1/2 [7]: 5.8 h; Vd ([11]; C57BL/6, mouse, read-out: Vd): 0.1 L/kg; CL free [8]: > 20000 mL/min/kg; AUCt [9]: 22 µmol·min/L
CS(=O)(=O)NC(=O)CCCc1cn(-c2ccc(Br)cc2)nc1-c1ccc(Cl)cc1 | 135 µM (≈ 67.1 µg/mL) | 37 µM (≈ 18.4 µg/mL) | –
CS(=O)(=O)NC(=O)CCn1nc(-c2ccc(Cl)cc2)cc1-c1ccc(Cl)cc1 | 200 µM (≈ 87.7 µg/mL) | > 50 µM | –
CS(=O)(=O)NC(=O)C1CC1c1cn(-c2ccc(Cl)cc2)nc1-c1ccncc1 (stereo unspecified) | 200 µM (≈ 83.4 µg/mL) | 19 µM (≈ 7.92 µg/mL) | logD [2]: 1.06; Stabilty [3]: > 99%; Stabilty [4]: 92%; Stabilty [5]: 96%; Fu [6]: 0.01 fraction; beta t1/2 [7]: 0.9 h; CL free [8]: > 20000 mL/min/kg; AUCt [9]: 21 µmol·min/L
CS(=O)(=O)NC(=O)NCc1cn(-c2ccc(Cl)cc2)nc1-c1ccc(Cl)cc1 | < 5 µM | 3.13 µM (≈ 1.38 µg/mL) | –
CC(CC(=O)NS(C)(=O)=O)c1cn(-c2ccc(Cl)cc2)nc1-c1ccncc1 (stereo unspecified) | 170 µM (≈ 71.2 µg/mL) | 50 µM (≈ 20.9 µg/mL) | –
CN(C(=O)CCc1cn(-c2ccc(Br)cc2)nc1-c1ccc(Cl)cc1)S(C)(=O)=O | < 5 µM | > 50 µM | –

SMILES | solubility thermodynamic [1] | MIC [10] | further results
CS(=O)(=O)NC(=O)CCc1cn(C2CCCCC2)nc1-c1ccc(Cl)cc1 | 200 µM (≈ 82 µg/mL) | > 50 µM | –
O=C1NC(=O)C(Cc2cn(-c3ccc(Cl)cc3)nc2-c2ccc(Cl)cc2)C(=O)N1 | – | > 50 µM | –
CS(=O)(=O)NC(=O)CCc1oc(-c2ccc(Cl)cc2)nc1-c1ccc(Cl)cc1 | 200 µM (≈ 87.9 µg/mL) | 37 µM (≈ 16.3 µg/mL) | –
CS(=O)(=O)NC(=O)CCc1cn(-c2ccc(Cl)cc2)nc1-c1ccccc1Cl | 90 µM (≈ 39.5 µg/mL) | > 50 µM | –
CS(=O)(=O)NC(=O)CCc1cn(-c2ccc(Br)cc2)nc1-c1cccnc1 | 200 µM (≈ 89.9 µg/mL) | 6.25 µM (≈ 2.81 µg/mL) | logD [2]: 0.84; Stabilty [3]: 37%; Stabilty [4]: 95%; Stabilty [5]: 94%; Fu [6]: 0.022 fraction; beta t1/2 [7]: 1.7 h; Vd ([11]; mouse, 24 h): 28.1 L/kg; CL free [8]: 8091 mL/min/kg; AUCt [9]: 31 µmol·min/L
CS(=O)(=O)NC(=O)CCc1cn(-c2ccc(Br)cc2)nc1C1CCCCC1 | 60 µM (≈ 27.3 µg/mL) | 9.4 µM (≈ 4.27 µg/mL) | –
CS(=O)(=O)NC(=O)CCc1cn(-c2ccc(Br)cc2)nc1-c1cccc(Cl)c1 | 165 µM (≈ 79.7 µg/mL) | – | –
CS(=O)(=O)NC(=O)CCc1cn(-c2ccccc2Br)nc1-c1ccc(Cl)cc1 | 165 µM (≈ 79.7 µg/mL) | > 50 µM | –
CS(=O)(=O)NC(=O)CCc1cc(-c2ccc(Br)cc2)nn1-c1ccc(Cl)cc1 | 200 µM (≈ 96.6 µg/mL) | 6.25 µM (≈ 3.02 µg/mL) | logD [2]: 2.1; Stabilty [3]: > 99%; Stabilty [4]: 87%; Stabilty [5]: 91%; Fu [6]: 0.01 fraction; beta t1/2 [7]: 3.6 h; Vd ([11]; mouse, 24 h): 1 L/kg; CL free [8]: 313 mL/min/kg; AUCt [9]: 1359 µmol·min/L
CS(=O)(=O)NC(=O)C1CC1c1cn(-c2ccc(Br)cc2)nc1-c1ccncc1 (stereo unspecified) | 155 µM (≈ 71.5 µg/mL) | 12.5 µM (≈ 5.77 µg/mL) | –
O=C(CCc1cn(-c2ccc(Br)cc2)nc1-c1ccc(Cl)cc1)NS(=O)(=O)C1CC1 | 5 µM (≈ 2.54 µg/mL) | > 50 µM | –
CC(=O)NS(=O)(=O)CCc1cn(-c2ccc(Br)cc2)nc1-c1ccc(Cl)cc1 | 165 µM (≈ 79.7 µg/mL) | > 50 µM | –
CS(=O)(=O)NC1=NOC(c2cn(-c3ccc(Cl)cc3)nc2-c2ccc(Cl)cc2)C1 (stereo unspecified) | 175 µM (≈ 79 µg/mL) | 25 µM (≈ 11.3 µg/mL) | –
CS(=O)(=O)NC(=O)CCc1cn(-c2ccc(F)cc2)nc1-c1ccc(Cl)cc1 | 25 µM (≈ 10.5 µg/mL) | 37 µM (≈ 15.6 µg/mL) | –
CS(=O)(=O)NC(=O)CCc1sc(-c2ccc(Cl)cc2)nc1-c1ccc(Cl)cc1 | 90 µM (≈ 41 µg/mL) | 19 µM (≈ 8.65 µg/mL) | –
CS(=O)(=O)NC(=O)CCc1cn(-c2ccc(Br)cc2)nc1C1CCNCC1 | 196 µM (≈ 89.3 µg/mL) | > 50 µM | –
CS(=O)(=O)NC(=O)Cc1cn(-c2ccc(Br)cc2)nc1-c1ccc(Cl)cc1 | – | > 50 µM | –
CS(=O)(=O)NC(=O)CCc1cn(-c2ccc(Br)cc2)nc1-c1ccc(N)cc1 | 160 µM (≈ 74.1 µg/mL) | 25 µM (≈ 11.6 µg/mL) | –
Clc1ccc(-c2nn(-c3ccc(Br)cc3)cc2CCc2nnn[nH]2)cc1 | 150 µM (≈ 64.5 µg/mL) | > 50 µM | –
CS(=O)(=O)NC(=O)CCc1cn(-c2ccc(C#N)cc2)nc1-c1ccc(Cl)cc1 | 75 µM (≈ 32.2 µg/mL) | 25 µM (≈ 10.7 µg/mL) | –
CS(=O)(=O)NCCCc1cn(-c2ccc(Br)cc2)nc1-c1ccc(Cl)cc1 | < 5 µM | > 50 µM | –
CNC(=O)CCc1cn(-c2ccc(Br)cc2)nc1-c1ccc(Cl)cc1 | < 5 µM | > 50 µM | –
CS(=O)(=O)NC(=O)/C=C/c1cn(-c2ccc(Br)cc2)nc1-c1ccncc1 | 115 µM (≈ 51.4 µg/mL) | 12 µM (≈ 5.37 µg/mL) | –
CS(=O)(=O)NC(=O)CCc1cn(-c2ccc(Br)cc2)nc1C1CCOCC1 | 200 µM (≈ 91.3 µg/mL) | 9.4 µM (≈ 4.29 µg/mL) | logD [2]: 0.55; Stabilty [3]: 86%; Stabilty [4]: 83%; Stabilty [5]: 77%; Fu [6]: 0.07 fraction; beta t1/2 [7]: 2.3 h; Vd ([11]; mouse, 24 h): 29.3 L/kg; CL free [8]: 2071 mL/min/kg; AUCt [9]: 31 µmol·min/L
CS(=O)(=O)NC(=O)CCc1cn(-c2ccncc2)nc1-c1ccc(Cl)cc1 | 190 µM (≈ 76.9 µg/mL) | > 50 µM | –
CS(=O)(=O)NC(=O)CCc1cn(-c2ccc(Br)cc2)nc1C1CCN(C=O)CC1 | 200 µM (≈ 96.7 µg/mL) | 50 µM (≈ 24.2 µg/mL) | –
CCc1cc(C(N)=S)ccn1 [ETHIONAMIDE] | – | – | MIC [12]: 15.6 µM (≈ 2.59 µg/mL)
